One experiment deals with KM12 cells. The experiment can be described thus: KM12 cell viability (CellTiter-Glo). In kind it is cell-based. Particulars: Homo sapiens. Summed up: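 KM12 cells seeded at 5000 per well in RPMI 1640 + 10% FBS and exposed 3 days to serial dilutions (11-point 3-fold, 8-point 3-fold from 1000 nM, or 12-point 2-fold). Viability by CellTiter-Glo; IC50 from least-squares nonlinear regression.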
(ATP-based viability assays read luminescence as a measure of living cells.)

In a further experiment the target is T1, TPM3-TRKA fusion protein (Homo sapiens, UniProt P04629).
T1 construct: The resulted chimeric proteins always retain the kinase domain of TRK proteins; TPM3 (fusion partner, N-terminal part of tropomyosin alpha-3, P06753); endogenous in cells; host or cells: KM12 colon cancer cells; the other entry of the earlier key: TPM3 (P06753, Tropomyosin alpha-3 chain)
T1 sequence (P04629 with tags, fused parts or gaps): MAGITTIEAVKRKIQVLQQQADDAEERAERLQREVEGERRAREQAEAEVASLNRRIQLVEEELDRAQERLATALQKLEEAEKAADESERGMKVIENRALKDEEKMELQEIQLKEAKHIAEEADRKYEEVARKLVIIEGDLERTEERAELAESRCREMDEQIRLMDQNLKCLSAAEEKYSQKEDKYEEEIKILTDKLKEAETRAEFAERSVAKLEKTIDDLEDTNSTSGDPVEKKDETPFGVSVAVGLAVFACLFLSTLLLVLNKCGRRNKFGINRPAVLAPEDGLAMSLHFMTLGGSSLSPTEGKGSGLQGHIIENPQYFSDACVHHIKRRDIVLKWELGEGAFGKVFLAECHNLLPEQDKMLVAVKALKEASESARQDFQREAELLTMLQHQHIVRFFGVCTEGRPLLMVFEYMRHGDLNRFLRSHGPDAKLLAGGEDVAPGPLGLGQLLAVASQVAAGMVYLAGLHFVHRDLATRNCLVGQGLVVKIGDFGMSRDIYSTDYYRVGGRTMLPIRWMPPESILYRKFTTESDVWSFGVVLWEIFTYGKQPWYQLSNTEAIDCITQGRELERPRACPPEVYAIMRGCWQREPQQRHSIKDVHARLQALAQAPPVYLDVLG
The experiment can be described thus: TPM3-TRKA fusion protein levels in KM12 cells (Western blot). The class given is cell-based. Particulars: read-out: Degradation (at 10 nM). The method in brief:
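KM12 colon cancer cells were treated with DMSO or compounds at 0.1–100 nM, 0.4–30 nM or other stated concentrations for 4, 8–16 or 16 h. RIPA lysates were BCA-normalized and resolved by SDS-PAGE. TPM3-TRKA was detected by chemiluminescent Western blot, with bands quantified by densitometry.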
(A western blot detects proteins with antibodies after separation by electrophoresis.)

Where [1] appears, read: 72 h, KM12 cell viability, 11-point 3-fold serial dilution, 3 days, CellTiter-Glo, read-out: IC50.
The mark [2] stands for this setting: 16 h, TPM3-TRKA degradation in KM12 cells at 10 nM.

The text below walks through data of patent publication US12410171B2, “Tropomyosin receptor kinase (TRK) degradation compounds and methods of use” (Cullgen (Shanghai), Inc., priority 2020, dated 2025).

Where two headings read alike, the source gives them in different places.

The term IC50 denotes the point on the concentration scale where inhibition reaches its midpoint. As for `O=C1CCC(N2C(=O)c3ccc(NCCOCCOCCOCCC(=O)N4CCC(Nc5cccc(C(=O)Nc6cnn7ccc(N8CCC[C@@H]8c8cc(F)ccc8F)nc67)n5)CC4)cc3C2=O)C(=O)N1` (stereo partly drawn) [CPD-475, N-(5-((R)-2-(2,5-difluorophenyl)pyrrolidin-1-yl)pyrazolo[1,5-a]pyrimidin-3-yl)-6-((1-(3-(2-(2-(2-((2-(2,6-dioxopiperidin-3-yl)-1,3-dioxoisoindolin-5-yl)amino)ethoxy)ethoxy)ethoxy)propanoyl)piperidin-4-yl)amino)picolinamide], the IC50 in the experiment with KM12 cells (setting [1]) came to 17 nM. At TPM3-TRKA fusion protein (setting [2]), the percent degradation of TPM3-TRKA protein at 0.01 µM was greater than 80%.

With `O=C1CCC(N2C(=O)c3ccc(NCCOCCOCCOCCOCCC(=O)N4CCC(Nc5cccc(C(=O)Nc6cnn7ccc(N8CCC[C@@H]8c8cc(F)ccc8F)nc67)n5)CC4)cc3C2=O)C(=O)N1` (stereo partly drawn) [CPD-476, N-(5-((R)-2-(2,5-difluorophenyl)pyrrolidin-1-yl)pyrazolo[1,5-a]pyrimidin-3-yl)-6-((1-(1-((2-(2,6-dioxopiperidin-3-yl)-1,3-dioxoisoindolin-5-yl)amino)-3,6,9,12-tetraoxapentadecan-15-oyl)piperidin-4-yl)amino)picolinamide], in the experiment on KM12 cells (setting [1]), the IC50 turned out to be 22.4 nM. Also, the percent degradation of TPM3-TRKA protein at 0.01 µM on TPM3-TRKA fusion protein (setting [2]) is greater than 80%.

Take `O=C1CCC(N2C(=O)c3ccc(NCCOCCOCCOCCOCCOCCC(=O)N4CCC(Nc5cccc(C(=O)Nc6cnn7ccc(N8CCC[C@@H]8c8cc(F)ccc8F)nc67)n5)CC4)cc3C2=O)C(=O)N1` (stereo partly drawn) [CPD-477, N-(5-((R)-2-(2,5-difluorophenyl)pyrrolidin-1-yl)pyrazolo[1,5-a]pyrimidin-3-yl)-6-((1-(1-((2-(2,6-dioxopiperidin-3-yl)-1,3-dioxoisoindolin-5-yl)amino)-3,6,9,12,15-pentaoxaoctadecan-18-oyl)piperidin-4-yl)amino)picolinamide]: in the experiment on KM12 cells (setting [1]), the IC50 came out at 51.7 nM. The percent degradation of TPM3-TRKA protein at 0.01 µM at TPM3-TRKA fusion protein (setting [2]) was in the range of 50 to 80%.

In the experiment with KM12 cells (KM12, 72 h), `NC(=O)C1CCN(c2cc(CN3CCN(C(=O)CNc4cccc5c4C(=O)N(C4CCC(=O)NC4=O)C5=O)CC3)ccc2NC(=O)c2coc(N3CCOCC3)n2)CC1` (centres unmarked) [CPD-478, N-(2-(4-carbamoylpiperidin-1-yl)-4-((4-((2-(2,6-dioxopiperidin-3-yl)-1,3-dioxoisoindolin-4-yl)glycyl)piperazin-1-yl)methyl)phenyl)-2-morpholinooxazole-4-carboxamide] registered an IC50 of 28 nM. Further, the percent degradation of TPM3-TRKA protein at 0.01 µM at TPM3-TRKA fusion protein (KM12, 16 h) was greater than 80%.

For the compound `NC(=O)C1CCN(c2cc(CN3CCN(C(=O)CCNc4cccc5c4C(=O)N(C4CCC(=O)NC4=O)C5=O)CC3)ccc2NC(=O)c2coc(N3CCOCC3)n2)CC1` (centres unmarked) [CPD-479, N-(2-(4-carbamoylpiperidin-1-yl)-4-((4-(3-((2-(2,6-dioxopiperidin-3-yl)-1,3-dioxoisoindolin-4-yl)amino)propanoyl)piperazin-1-yl)methyl)phenyl)-2-morpholinooxazole-4-carboxamide], the IC50 in the experiment on KM12 cells (setting [1]) worked out at 132 nM. For the same compound, the percent degradation of TPM3-TRKA protein at 0.01 µM at TPM3-TRKA fusion protein (setting [2]) is 50 to 80%.

On to `NC(=O)C1CCN(c2cc(CN3CCN(C(=O)CCCNc4cccc5c4C(=O)N(C4CCC(=O)NC4=O)C5=O)CC3)ccc2NC(=O)c2coc(N3CCOCC3)n2)CC1` (centres unmarked) [CPD-480, N-(2-(4-carbamoylpiperidin-1-yl)-4-((4-(4-((2-(2,6-dioxopiperidin-3-yl)-1,3-dioxoisoindolin-4-yl)amino)butanoyl)piperazin-1-yl)methyl)phenyl)-2-morpholinooxazole-4-carboxamide], for which the IC50 in the experiment with KM12 cells (setting [1]) amounted to 22 nM. In addition, the percent degradation of TPM3-TRKA protein at 0.01 µM at TPM3-TRKA fusion protein (setting [2]) is greater than 80%.

`NC(=O)C1CCN(c2cc(CN3CCN(C(=O)CCCCNc4cccc5c4C(=O)N(C4CCC(=O)NC4=O)C5=O)CC3)ccc2NC(=O)c2coc(N3CCOCC3)n2)CC1` (centres unmarked) [CPD-481, N-(2-(4-carbamoylpiperidin-1-yl)-4-((4-(5-((2-(2,6-dioxopiperidin-3-yl)-1,3-dioxoisoindolin-4-yl)amino)pentanoyl)piperazin-1-yl)methyl)phenyl)-2-morpholinooxazole-4-carboxamide]: the IC50 in the experiment with KM12 cells (setting [1]) is 17 nM. Moreover, the percent degradation of TPM3-TRKA protein at 0.01 µM on TPM3-TRKA fusion protein (setting [2]) was greater than 80%.

Regarding `NC(=O)C1CCN(c2cc(CN3CCN(C(=O)CCCCCNc4cccc5c4C(=O)N(C4CCC(=O)NC4=O)C5=O)CC3)ccc2NC(=O)c2coc(N3CCOCC3)n2)CC1` (centres unmarked) [CPD-482, N-(2-(4-carbamoylpiperidin-1-yl)-4-((4-(6-((2-(2,6-dioxopiperidin-3-yl)-1,3-dioxoisoindolin-4-yl)amino)hexanoyl)piperazin-1-yl)methyl)phenyl)-2-morpholinooxazole-4-carboxamide], the IC50 with KM12 cells (setting [1]) came out at 4.7 nM. For the same compound, the percent degradation of TPM3-TRKA protein at 0.01 µM at TPM3-TRKA fusion protein (setting [2]) was greater than 80%.

`NC(=O)C1CCN(c2cc(CN3CCN(C(=O)CCCCCCNc4cccc5c4C(=O)N(C4CCC(=O)NC4=O)C5=O)CC3)ccc2NC(=O)c2coc(N3CCOCC3)n2)CC1` (centres unmarked) [CPD-483, N-(2-(4-carbamoylpiperidin-1-yl)-4-((4-(7-((2-(2,6-dioxopiperidin-3-yl)-1,3-dioxoisoindolin-4-yl)amino)heptanoyl)piperazin-1-yl)methyl)phenyl)-2-morpholinooxazole-4-carboxamide]: the IC50 in the experiment on KM12 cells (setting [1]) came to 5.5 nM. Also, the percent degradation of TPM3-TRKA protein at 0.01 µM on TPM3-TRKA fusion protein (setting [2]) was greater than 80%.

With `NC(=O)C1CCN(c2cc(CN3CCN(C(=O)CCCCCCCNc4cccc5c4C(=O)N(C4CCC(=O)NC4=O)C5=O)CC3)ccc2NC(=O)c2coc(N3CCOCC3)n2)CC1` (centres unmarked) [CPD-484, N-(2-(4-carbamoylpiperidin-1-yl)-4-((4-(8˜ ((2-(2,6-dioxopiperidin-3-yl)-1,3-dioxoisoindolin-4-yl)amino)octanoyl)piperazin-1-yl)methyl)phenyl)-2-morpholinooxazole-4-carboxamide], in the experiment on KM12 cells (setting [1]), the IC50 amounted to 42 nM. On TPM3-TRKA fusion protein (setting [2]), the percent degradation of TPM3-TRKA protein at 0.01 µM is greater than 80%.

Take `NC(=O)C1CCN(c2cc(CN3CCN(C(=O)CCOCCNc4cccc5c4C(=O)N(C4CCC(=O)NC4=O)C5=O)CC3)ccc2NC(=O)c2coc(N3CCOCC3)n2)CC1` (centres unmarked) [CPD-485, N-(2-(4-carbamoylpiperidin-1-yl)-4-((4-(3-(2-((2-(2,6-dioxopiperidin-3-yl)-1,3-dioxoisoindolin-4-yl)amino)ethoxy)propanoyl)piperazin-1-yl)methyl)phenyl)-2-morpholinooxazole-4-carboxamide]: the IC50 with KM12 cells (setting [1]) turned out to be 94 nM. The percent degradation of TPM3-TRKA protein at 0.01 µM at TPM3-TRKA fusion protein (setting [2]) was 50 to 80%.

`NC(=O)C1CCN(c2cc(CN3CCN(C(=O)CCOCCOCCOCCNc4cccc5c4C(=O)N(C4CCC(=O)NC4=O)C5=O)CC3)ccc2NC(=O)c2coc(N3CCOCC3)n2)CC1` (centres unmarked) [CPD-487, N-(2-(4-carbamoylpiperidin-1-yl)-4-((4-(3-(2-(2-(2-((2-(2,6-dioxopiperidin-3-yl)-1,3-dioxoisoindolin-4-yl)amino)ethoxy)ethoxy)ethoxy)propanoyl)piperazin-1-yl)methyl)phenyl)-2-morpholinooxazole-4-carboxamide]: in the experiment with KM12 cells (setting [1]), the IC50 amounted to 121 nM. Also, on TPM3-TRKA fusion protein (setting [2]), the percent degradation of TPM3-TRKA protein at 0.01 µM lay in the range of 50 to 80%.

Turning to `Cc1ncsc1-c1ccc(CNC(=O)[C@@H]2C[C@@H](O)CN2C(=O)[C@@H](NC(=O)CCCCCCCCC(=O)N2CCN(Cc3ccc(NC(=O)c4coc(N5CCOCC5)n4)c(N4CCC(C(N)=O)CC4)c3)CC2)C(C)(C)C)cc1` [CPD-493, N-(2-(4-carbamoylpiperidin-1-yl)-4-((4-(10-(((S)-1-((2S,4R)-4-hydroxy-2-((4-(4-methylthiazol-5-yl)benzyl)carbamoyl)pyrrolidin-1-yl)-3,3-dimethyl-1-oxobutan-2-yl)amino)-10-oxodecanoyl)piperazin-1-yl)methyl)phenyl)-2-morpholinooxazole-4-carboxamide], in the experiment on KM12 cells (setting [1]), the IC50 was 46 nM. Also, the percent degradation of TPM3-TRKA protein at 0.01 µM at TPM3-TRKA fusion protein (setting [2]) is 50 to 80%.

As to `COc1ccc(COc2ccc(Cn3c(N)nc4cc(-c5cnn(CC(=O)NCCNc6cccc7c6C(=O)N(C6CCC(=O)NC6=O)C7=O)c5)cnc43)cc2OC)cc1` (centres unmarked) [CPD-498, 2-(4-(2-amino-3-(3-methoxy-4-((4-methoxybenzyl)oxy)benzyl)-3H-imidazo[4,5-b]pyridin-6-yl)-1H-pyrazol-1-yl)-N-(2-((2-(2,6-dioxopiperidin-3-yl)-1,3-dioxoisoindolin-4-yl)amino)ethyl)acetamide], the IC50 with KM12 cells (KM12, 72 h) turned out to be 36.5 nM. Also, the percent degradation of TPM3-TRKA protein at 0.01 µM at TPM3-TRKA fusion protein (KM12, 16 h) was in the range of 50 to 80%.

Regarding `COc1ccc(COc2ccc(Cn3c(N)nc4cc(-c5cnn(CC(=O)NCCCCNc6cccc7c6C(=O)N(C6CCC(=O)NC6=O)C7=O)c5)cnc43)cc2OC)cc1` (centres unmarked) [CPD-499, 2-(4-(2-amino-3-(3-methoxy-4-((4-methoxybenzyl)oxy)benzyl)-3H-imidazo[4,5-b]pyridin-6-yl)-1H-pyrazol-1-yl)-N-(4-((2-(2,6-dioxopiperidin-3-yl)-1,3-dioxoisoindolin-4-yl)amino)butyl)acetamide], in the experiment with KM12 cells (setting [1]), the IC50 came out at 11.3 nM. In addition, the percent degradation of TPM3-TRKA protein at 0.01 µM at TPM3-TRKA fusion protein (setting [2]) was greater than 80%.

On to `COc1ccc(COc2ccc(Cn3c(N)nc4cc(-c5cnn(CC(=O)NCCCCCCNc6cccc7c6C(=O)N(C6CCC(=O)NC6=O)C7=O)c5)cnc43)cc2OC)cc1` (centres unmarked) [CPD-500, 2-(4-(2-amino-3-(3-methoxy-4-((4-methoxybenzyl)oxy)benzyl)-3H-imidazo[4,5-b]pyridin-6-yl)-1H-pyrazol-1-yl)-N-(6-((2-(2,6-dioxopiperidin-3-yl)-1,3-dioxoisoindolin-4-yl)amino)hexyl)acetamide], for which the IC50 with KM12 cells (setting [1]) amounted to 13.2 nM. For the same compound, the percent degradation of TPM3-TRKA protein at 0.01 µM at TPM3-TRKA fusion protein (setting [2]) is greater than 80%.
